Test results as given in article PMC10895652, “Preclinical Evaluation of Novel Positron Emission Tomography (PET) Probes for Imaging Leucine-Rich Repeat Kinase 2 (LRRK2)” (Journal of Medicinal Chemistry, 2024).

Molecular target: T1, LRRK2 (Rattus norvegicus, UniProt F1LNJ1)
T1 construct: from tissue; host or cells: rat brain (Sprague-Dawley rats)
Test: PET imaging in rats with arterial blood sampling (2TCM, VT)
Assay type: in vivo
Settings: compound 3 (1 mg/kg) i.v. prior to tracer injection
Description: The promising pharmacological, pharmacokinetic, and in vitro autoradiographic data encouraged us to carry out preliminary dynamic PET imaging studies of [^11C]3 and [^18F]4. […] Given the superiority of fluorine-18 such as clean positron emission, low positron range, and relatively long half-life compared with carbon-11, [^18F]4 was subjected to further investigation (Figure 6). A blocking scan was carried out with intravenous administration of compound 3 (1 mg/kg) prior to tracer injection. For both baseline and blocking studies, blood samples were extracted from the artery. Both whole-blood and plasma radioactivity concentrations were evaluated, and radiometabolites were measured in plasma samples by radio high-performance liquid chromatography (HPLC) to generate metabolite-corrected input function (Figure S2). Compartmental analyses with one- and two-tissue compartment models (1TCM and 2TCM) were carried out on regional time–activity curves. […] In the baseline study, VT of various brain regions ranged from 2.2 to 2.9 mL/cm^3, confirming the high binding of the radiotracer.
The general procedure for PET studies was described previously[35],[41] with minor modification in this work. […] The radioactivity was decay-corrected and expressed as the standard uptake value: SUV = (radioactivity per mL tissue/injected radioactivity) × body weight.

T1 sequence (F1LNJ1 1-2526): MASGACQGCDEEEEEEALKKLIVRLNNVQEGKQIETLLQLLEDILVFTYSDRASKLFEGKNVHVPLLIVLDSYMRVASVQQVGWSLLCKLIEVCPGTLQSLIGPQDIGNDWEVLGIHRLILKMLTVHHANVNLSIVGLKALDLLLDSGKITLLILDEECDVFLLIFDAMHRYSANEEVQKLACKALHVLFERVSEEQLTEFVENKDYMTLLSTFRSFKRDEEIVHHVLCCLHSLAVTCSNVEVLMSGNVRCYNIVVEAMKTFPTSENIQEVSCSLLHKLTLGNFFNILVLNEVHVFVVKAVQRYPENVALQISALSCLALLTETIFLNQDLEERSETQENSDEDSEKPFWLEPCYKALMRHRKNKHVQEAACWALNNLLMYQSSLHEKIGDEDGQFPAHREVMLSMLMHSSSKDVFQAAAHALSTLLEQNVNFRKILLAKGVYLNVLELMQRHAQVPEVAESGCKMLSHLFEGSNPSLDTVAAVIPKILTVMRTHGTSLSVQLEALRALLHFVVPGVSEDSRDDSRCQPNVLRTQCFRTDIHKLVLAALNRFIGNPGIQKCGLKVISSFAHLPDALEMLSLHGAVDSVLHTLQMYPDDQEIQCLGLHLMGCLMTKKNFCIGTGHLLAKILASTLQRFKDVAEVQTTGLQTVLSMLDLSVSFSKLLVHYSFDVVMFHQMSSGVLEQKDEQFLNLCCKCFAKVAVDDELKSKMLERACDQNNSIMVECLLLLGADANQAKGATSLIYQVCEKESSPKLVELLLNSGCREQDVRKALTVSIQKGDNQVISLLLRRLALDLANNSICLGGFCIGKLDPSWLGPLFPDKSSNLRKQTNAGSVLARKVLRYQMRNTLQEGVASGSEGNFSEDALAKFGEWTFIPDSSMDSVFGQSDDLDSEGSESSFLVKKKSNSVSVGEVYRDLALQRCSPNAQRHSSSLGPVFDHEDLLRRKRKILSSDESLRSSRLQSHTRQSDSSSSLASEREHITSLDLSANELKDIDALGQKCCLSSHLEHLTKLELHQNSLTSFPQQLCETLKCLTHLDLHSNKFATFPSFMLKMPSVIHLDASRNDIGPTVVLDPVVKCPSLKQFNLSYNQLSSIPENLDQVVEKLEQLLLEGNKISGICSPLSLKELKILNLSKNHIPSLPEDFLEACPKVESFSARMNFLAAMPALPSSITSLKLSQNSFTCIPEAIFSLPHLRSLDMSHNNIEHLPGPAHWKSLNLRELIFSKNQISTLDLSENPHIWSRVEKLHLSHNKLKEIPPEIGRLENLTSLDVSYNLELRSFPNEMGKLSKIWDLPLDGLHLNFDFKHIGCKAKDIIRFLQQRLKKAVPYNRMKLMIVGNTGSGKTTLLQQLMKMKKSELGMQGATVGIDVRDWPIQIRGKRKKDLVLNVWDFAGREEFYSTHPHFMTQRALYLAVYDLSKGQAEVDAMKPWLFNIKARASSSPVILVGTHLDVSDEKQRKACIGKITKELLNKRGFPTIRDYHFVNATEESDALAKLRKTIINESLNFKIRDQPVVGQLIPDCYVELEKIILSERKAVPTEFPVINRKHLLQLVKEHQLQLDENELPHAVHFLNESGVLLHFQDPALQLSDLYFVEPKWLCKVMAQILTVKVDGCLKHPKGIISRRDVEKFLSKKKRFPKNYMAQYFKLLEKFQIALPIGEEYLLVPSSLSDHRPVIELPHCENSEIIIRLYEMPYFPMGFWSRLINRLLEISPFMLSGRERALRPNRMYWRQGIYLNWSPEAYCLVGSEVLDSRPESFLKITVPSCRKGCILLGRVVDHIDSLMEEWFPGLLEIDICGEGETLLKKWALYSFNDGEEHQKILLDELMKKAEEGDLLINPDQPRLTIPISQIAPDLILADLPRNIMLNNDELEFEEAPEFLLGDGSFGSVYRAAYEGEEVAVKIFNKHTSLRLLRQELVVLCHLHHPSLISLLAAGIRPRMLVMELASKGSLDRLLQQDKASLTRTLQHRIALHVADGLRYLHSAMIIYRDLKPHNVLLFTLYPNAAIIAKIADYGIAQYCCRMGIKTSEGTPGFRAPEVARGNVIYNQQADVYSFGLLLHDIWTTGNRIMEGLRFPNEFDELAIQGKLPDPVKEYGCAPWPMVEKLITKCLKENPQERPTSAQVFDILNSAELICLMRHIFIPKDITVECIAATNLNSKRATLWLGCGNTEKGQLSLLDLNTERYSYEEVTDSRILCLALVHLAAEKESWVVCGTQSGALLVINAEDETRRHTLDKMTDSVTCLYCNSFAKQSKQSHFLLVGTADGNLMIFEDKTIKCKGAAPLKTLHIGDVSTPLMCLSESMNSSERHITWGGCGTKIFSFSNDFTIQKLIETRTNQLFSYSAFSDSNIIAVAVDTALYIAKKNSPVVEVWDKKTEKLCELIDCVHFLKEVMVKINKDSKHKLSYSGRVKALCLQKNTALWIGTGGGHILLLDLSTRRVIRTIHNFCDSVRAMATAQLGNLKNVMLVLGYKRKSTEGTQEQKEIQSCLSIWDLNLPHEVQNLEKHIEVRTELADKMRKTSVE

`N#Cc1cccc(-c2c[nH]c3ncnc(N4CCOCC4)c23)c1[18F]` [[^18F]4] was tested, and the “uptake in various brain regions after pretreatment of compound 3” value was “significant decrease of uptake”.
